The source of these data is patent US20240148749A1 (priority 2021, published 2024).

The experiment has as its system CLP mice. In words: Survival after cecal ligation and puncture (CLP) model of sepsis. Type of experiment: in vivo, mouse. As to the method: A log-rank (Mantel-Cox) p value for trend was calculated.
We used peritonitis induced by CLP as a model of sepsis (Rittirsch et al., 2009). Briefly, animals were anesthetized with ketamine (Imalgene® 1000 100 mg/kg, Merial, France) and Xylazine (Rompun® 2% 20 mg/kg, Bayer, Germany) prior to surgery. After laparotomy, caecum was ligatured at the distal third with a 4.0 suture and the distal part was perforated twice with a 21 Gauge needle.
For use it is dissolved following the guidance provided by the manufacturer.
Clinical score was assessed 6, 12 and 24 hours and 21 days after CLP using a modified SmithKline Beecham, Harwell, Imperial College and Royal London Hospital phenotype assessment (SHIRPA) (Rogers et al., 1997) of the maximum score of fourteen. Weight, temperature and locomotor activity using an open field box were measured at the same time points. We determined survival rate twice a day for 21 days after CLP. The symptoms included in the a modified SmithKline Beecham, Harwell, Imperial College and Royal London Hospital phenotype assessment (SHIRPA) are tremors, periorbital exudates, piloerection, lethargy, vocalisation, positional passivity, no escapement to threat, long transfer arousal and diarrhoea. Each condition was scored from 0 to 2.
Experimental protocols were conducted in accordance with the French and European regulations on Animal Welfare and with Public Health Service recommendations. The experiments were performed on C57BL/6JRj mice (male and female) purchased from Janvier Laboratory. Mice were housed in cages in groups of 7, in a temperature (22±1.5° C.) and humidity-controlled environment, with a 12 h light/dark cycle. All animals used in the study were between 10 and 12 weeks old. Sample-size estimates for animal experiments were based on prior animal-modelling studies used in the Unit for the investigation of caecal ligation and puncture (CLP).
At the end, two groups were compared: CLP-Placebo, CLP-BMX-010. We determined survival rate twice a day for 4 days after CLP.”

Consider `CC[n+]1ccccc1-c1c2nc(c(-c3cccc[n+]3CC)c3ccc([nH]3)c(-c3cccc[n+]3CC)c3nc(c(-c4cccc[n+]4CC)c4ccc1[nH]4)C=C3)C=C2.[Mn+3]` [BMX-010, manganese(III) 5,10,15,20-tetrakis(N-ethylpyridinium-2-yl) porphyrin], for which the “survival of mice hours post-CLP (probability of survival over time) versus placebo” value (CLP experiment, FIG. 10) is recorded as “outperforms the placebo”. Also, where the note is “CLP mice, 2 mg/kg intra peritoneal every 12 hours during 48 hours (4 injections), N=12 mice C57BL6/group”, the “survival at 4 days post-CLP versus placebo” value was “more that doubles survival”.
